In ChEMBL document CHEMBL1201862, “PubChem BioAssay data set” (2004):
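These data come from cells grown in 96-well plates and exposed to compound for 48 hours at five concentrations. At the GI50, growth is halved.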 Active and inactive are the calls of the source. Cut-off read from the data, not from the text of the source: active = GI50 up to about 1.1 µM and inactive = higher.

Experiments:
Assay in all cases: NCI tumour cell line growth inhibition, 48 h
HL-60 = test system: HL-60
OVCAR-8 = test system: OVCAR-8
IGROV-1 = test system: IGROV-1
CAKI-1 = test system: CAKI-1
COLO 205 = test system: COLO 205
TK-10 = test system: TK-10
LOX IMVI = test system: LOX IMVI
SK-MEL-28 = test system: SK-MEL-28
MOLT-4 = test system: MOLT-4
NCI/ADR-RES = test system: NCI/ADR-RES
CCRF-CEM = test system: CCRF-CEM
NCI-H522 = test system: NCI-H522
NCI-H460 = test system: NCI-H460
HOP-92 = test system: HOP-92
EKVX = test system: EKVX
SK-OV-3 = test system: SK-OV-3
SF-268 = test system: SF-268
OVCAR-3 = test system: OVCAR-3
SNB-75 = test system: SNB-75

Measured: GI50

COCCOC(=O)NCn1cc(-c2ccccc2)nn1
inactive: HL-60 > 100 µM | OVCAR-8 > 100 µM | IGROV-1 > 100 µM | CAKI-1 > 100 µM | COLO 205 > 100 µM | TK-10 > 100 µM | LOX IMVI > 100 µM | SK-MEL-28 > 100 µM | MOLT-4 > 100 µM | NCI/ADR-RES > 100 µM | CCRF-CEM > 100 µM | NCI-H522 > 100 µM | NCI-H460 > 100 µM | HOP-92 > 100 µM | EKVX > 100 µM

NC(=O)CC1OC(=O)Cc2cc3c(c(O)c21)C(=O)c1c(O)cccc1C3=O (configuration not stated)
inactive: HL-60 > 100 µM | OVCAR-8 > 100 µM | IGROV-1 69.3 µM | CAKI-1 > 100 µM | COLO 205 61.2 µM | TK-10 > 100 µM | LOX IMVI > 100 µM | SK-MEL-28 > 100 µM | MOLT-4 71.3 µM | NCI/ADR-RES > 100 µM | SK-OV-3 > 100 µM | CCRF-CEM 59.8 µM | NCI-H522 > 100 µM | NCI-H460 89.5 µM | HOP-92 > 100 µM | EKVX > 100 µM

NC(=O)NC(=O)c1cccc(C(=O)NC(N)=O)n1
inactive: SF-268 > 100 µM | HL-60 > 100 µM | OVCAR-8 > 100 µM | CAKI-1 > 100 µM | COLO 205 > 10 µM | TK-10 > 100 µM | LOX IMVI > 100 µM | SK-MEL-28 > 100 µM | MOLT-4 > 100 µM | NCI/ADR-RES > 100 µM | OVCAR-3 > 100 µM | SK-OV-3 > 100 µM | CCRF-CEM > 100 µM | NCI-H522 > 100 µM | NCI-H460 > 100 µM | HOP-92 24 µM | EKVX > 100 µM

Nc1ccccc1C(=O)/C=C/c1c(O)ccc2ccccc12
inactive: SF-268 > 100 µM | HL-60 > 100 µM | OVCAR-8 > 100 µM | IGROV-1 > 100 µM | CAKI-1 > 100 µM | COLO 205 > 100 µM | SNB-75 > 100 µM | TK-10 > 100 µM | LOX IMVI 19.2 µM | SK-MEL-28 > 100 µM | MOLT-4 > 100 µM | OVCAR-3 > 100 µM | SK-OV-3 > 100 µM | CCRF-CEM > 100 µM | NCI-H522 > 100 µM | NCI-H460 > 100 µM | HOP-92 > 100 µM | EKVX > 100 µM

COc1ccc(C(=O)C(c2ccc(OCc3ccccc3)cc2)c2ccc(OCc3ccccc3)cc2)cc1
inactive: SF-268 > 100 µM | HL-60 > 100 µM | OVCAR-8 > 100 µM | IGROV-1 > 100 µM | CAKI-1 > 100 µM | COLO 205 > 100 µM | SNB-75 > 100 µM | TK-10 > 100 µM | LOX IMVI > 100 µM | SK-MEL-28 > 100 µM | MOLT-4 > 100 µM | OVCAR-3 > 100 µM | SK-OV-3 > 100 µM | CCRF-CEM > 100 µM | NCI-H522 > 100 µM | NCI-H460 > 100 µM | HOP-92 > 100 µM | EKVX > 100 µM

CCN1C2=NC(=O)N(C)C(=O)C2(Cl)C(C(SC)S(=O)(=O)c2ccc(C)cc2)c2ccccc21 (configuration not stated)
inactive: SF-268 39.2 µM | HL-60 4.2 µM | OVCAR-8 21.2 µM | IGROV-1 76.9 µM | CAKI-1 34 µM | COLO 205 31.6 µM | SNB-75 20.7 µM | TK-10 > 100 µM | LOX IMVI 31.3 µM | SK-MEL-28 24.3 µM | MOLT-4 3.7 µM | OVCAR-3 24.1 µM | SK-OV-3 > 100 µM | CCRF-CEM 5.62 µM | NCI-H522 11.8 µM | NCI-H460 83.4 µM | HOP-92 30.6 µM | EKVX > 100 µM
